Counter-ions that a name gives are not always drawn.

These results are taken from PMC7604909, “Structure of a GH51 α-L-arabinofuranosidase from Meripilus giganteus: conserved substrate recognition from bacteria to fungi” (Acta Crystallographica. Section D, Structural Biology, 2020).

The target of assay [1] is T1, MgGH51 (Meripilus giganteus, UniProt Z9H0M4BQG1).
T1 construct: mature secreted enzyme, expressed in Aspergillus oryzae, N-glycosylated (Asn145, Asn245, Asn421, Asn487), untagged
T1 sequence (Z9H0M4BQG1 1-627): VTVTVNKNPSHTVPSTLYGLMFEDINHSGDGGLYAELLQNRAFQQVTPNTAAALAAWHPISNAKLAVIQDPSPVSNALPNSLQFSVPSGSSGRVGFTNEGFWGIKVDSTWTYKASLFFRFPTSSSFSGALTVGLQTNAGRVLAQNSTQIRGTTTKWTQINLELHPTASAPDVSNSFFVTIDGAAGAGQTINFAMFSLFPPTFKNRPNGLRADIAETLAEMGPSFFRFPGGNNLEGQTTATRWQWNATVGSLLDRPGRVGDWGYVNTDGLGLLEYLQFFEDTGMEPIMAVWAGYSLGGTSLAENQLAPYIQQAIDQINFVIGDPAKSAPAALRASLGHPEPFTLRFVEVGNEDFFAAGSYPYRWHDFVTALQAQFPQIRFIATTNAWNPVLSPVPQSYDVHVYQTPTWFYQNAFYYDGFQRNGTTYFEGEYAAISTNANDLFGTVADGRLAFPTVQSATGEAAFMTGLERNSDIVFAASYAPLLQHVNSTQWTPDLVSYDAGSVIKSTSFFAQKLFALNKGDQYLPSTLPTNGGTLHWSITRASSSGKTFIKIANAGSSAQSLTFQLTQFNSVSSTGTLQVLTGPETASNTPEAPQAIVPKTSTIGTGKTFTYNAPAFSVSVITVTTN
Nature of the assay: hydrolysis kinetics, released L-arabinose quantified on CarboPac PA20. The assay is classed as biochemical. Particulars: 40 °C, 50 mM sodium acetate pH 4, 5 ng/ml enzyme, 0.02-2.5 mM substrate; kind of constant not told in main text.

The target in assay [2] is T1, MgGH51. Nature of the assay: X-ray crystal structure, […] Å. Particulars: type 1 crystal, about one equivalent of inhibitor, 1 h at room temperature; covalent, bound to nucleophile Glu429 (ring-opened aziridine). The assay is classed as binding.
Assay [3] addresses T1, MgGH51. Briefly: X-ray crystal structure, […] Å. Particulars: type 1 crystal, about one equivalent of inhibitor, 1 h at room temperature; covalent, bound to nucleophile Glu429 (ring-opened cyclic sulfate); PDB code from Tables 3 and 4, the supplementary list pri. It is filed as binding.

`OC[C@@H]1O[C@@H](OC[C@@H]2O[C@@H](OC[C@@H]3OC(O)[C@H](O)[C@H]3O)[C@H](O)[C@H]2O)[C@H](O)[C@H]1O` (stereo partly drawn) [A3, α(1,5)-linked arabinotriose]: the “hydrolysis kinetics, released L-arabinose quantified on CarboPac PA20” value at MgGH51 [1] is “Measurement of the hydrolytic kinetics of MgGH51 towards the AX2 and A3 oligosaccharides”.

For `OC[C@@H]1O[C@@H](O[C@@H]2[C@@H](O)[C@H](O[C@@H]3COC(O)[C@H](O)[C@H]3O)OC[C@H]2O)[C@H](O)[C@H]1O` (stereo partly drawn) [AX2, 3^2-α-L-Arabinofuranosyl-xylobiose], on MgGH51 [1], the “hydrolysis kinetics, released L-arabinose quantified on CarboPac PA20” value was “Measurement of the hydrolytic kinetics of MgGH51 towards the AX2 and A3 oligosaccharides”.

Consider `OC[C@H]1[C@H](O)[C@@H](O)[C@@H]2N[C@H]12` [α-L-AraAZI, α-L-arabinocyclophellitol aziridine], for which the “X-ray crystal structure, 1.54 Å” value at MgGH51 [2] is “α-L-AraCS or α-L-AraAZI gave clear density for these two ligands bound to Glu429”.

As to `O=S1(=O)O[C@@H]2[C@@H](CO)[C@H](O)[C@@H](O)[C@@H]2O1` [α-L-AraCS, α-L-arabinocyclophellitol cyclic sulfate], the “X-ray crystal structure, 1.71 Å” value at MgGH51 [3] was “α-L-AraCS or α-L-AraAZI gave clear density for these two ligands bound to Glu429”.
